The source of these data is patent publication US20190185518A9, “WARHEAD-CONTAINING PEPTIDOMIMETIC MACROCYCLES AS MODULATORS OF BFL-1” (AILERON Therapeutics, Inc., priority 2017, published 2019).

Positions of bridges follow the written chain, without caps; N, C: chain ends. Non-standard residues stand in square brackets, D forms with d. Residues, ends and D or L forms follow the SMILES beside them. Bip = N[C@@H](Cc1ccc(-c2ccccc2)cc1)C(=O)O; hPhe = N[C@@H](CCc1ccccc1)C(=O)O; R8 = C=CCCCCCC[C@@](C)(N)C(=O)O; Cit = NC(=O)NCCC[C@H](N)C(=O)O; Chg = N[C@H](C(=O)O)C1CCCCC1; S5 = C=CCCC[C@](C)(N)C(=O)O

One assay has as its target Bcl-2 (Homo sapiens, UniProt P10415). The assay is described as follows: Ki determination for Bcl-2 (BCL-2 family binding spectrum). As to conditions: read-out: Ki BCL-2. From the text: To assess the binding and affinity of compounds that antagonize the interaction between a peptide and an acceptor protein, a fluorescence polarization assay (FPA) utilizing a fluoresceinated peptidomimetic macrocycle derived from a peptidomimetic precursor sequence is used, for example. The FPA technique measures the molecular orientation and mobility using polarized light and fluorescent tracer. […] A compound that antagonizes the interaction between the fluoresceinated peptidomimetic macrocycle and an acceptor protein will be detected in a competitive binding FPA experiment.
For example, putative antagonist compounds (1 nM to 1 mM) and a fluoresceinated peptidomimetic macrocycle (25 nM) are incubated with the acceptor protein (50 nM) in binding buffer (140 mM NaCl, 50 mM Tris-HCL, pH 7.4) for 30 minutes at room temperature. Antagonist binding activity is measured, for example, by fluorescence polarization on a luminescence spectrophotometer (e.g. Perkin-Elmer LS50B). Kd values may be determined by nonlinear regression analysis using, for example, Graphpad Prism software (GraphPad Software, Inc., San Diego, Calif.).

A further assay concerns the target Mcl-1 (Homo sapiens, UniProt Q07820). The assay is described as follows: Ki determination for Mcl-1 (BCL-2 family binding spectrum). As to conditions: read-out: Ki MCL-1. The gist of the method:
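Competitive fluorescence polarization assay in which compounds displace a fluoresceinated peptidomimetic macrocycle tracer from Mcl-1. Affinity constants were obtained by nonlinear regression.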

Mcl-1, sequence (Q07820 whole entry, species assumed): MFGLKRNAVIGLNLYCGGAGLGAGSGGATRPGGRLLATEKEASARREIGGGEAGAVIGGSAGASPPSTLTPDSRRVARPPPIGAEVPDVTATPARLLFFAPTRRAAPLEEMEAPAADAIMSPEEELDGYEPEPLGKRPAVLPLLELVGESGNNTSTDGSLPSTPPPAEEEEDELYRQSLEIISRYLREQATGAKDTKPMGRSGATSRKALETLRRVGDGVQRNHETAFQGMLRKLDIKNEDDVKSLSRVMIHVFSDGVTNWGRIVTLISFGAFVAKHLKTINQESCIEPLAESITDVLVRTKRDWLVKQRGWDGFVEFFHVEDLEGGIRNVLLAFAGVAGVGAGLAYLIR
Bcl-2, sequence (P10415 whole entry, species assumed): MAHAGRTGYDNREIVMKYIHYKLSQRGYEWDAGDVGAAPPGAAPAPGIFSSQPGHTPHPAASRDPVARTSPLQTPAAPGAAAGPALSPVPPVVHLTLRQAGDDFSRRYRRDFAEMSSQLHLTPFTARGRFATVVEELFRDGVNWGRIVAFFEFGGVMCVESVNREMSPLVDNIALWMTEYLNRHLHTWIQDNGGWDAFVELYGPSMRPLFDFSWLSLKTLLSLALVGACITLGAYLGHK

For `CC[C@H](C)[C@H](NC(C)=O)C(=O)N[C@@H](Cc1c[nH]c2ccccc12)C(=O)N[C@H](C(=O)N[C@@H](C)C(=O)N[C@@H](CCC(N)=O)C(=O)N[C@@H](C)C(=O)N[C@@H](CC(C)C)C(=O)N[C@@H](CCCNC(N)=O)C(=O)N[C@]1(C)CCCCCCC=CCCC[C@@](C)(C(=O)N[C@@H](Cc2ccc(O)cc2)C(=O)N[C@@H](Cc2ccc(O)cc2)C(=O)N[C@@H](C)C(N)=O)NC(=O)[C@H](CC(N)=O)NC(=O)[C@H](Cc2ccccc2)NC(=O)[C@H](C)NC(=O)[C@H](CC(=O)O)NC(=O)CNC(=O)[C@H]([C@@H](C)CC)NC1=O)[C@@H](C)CC` [compound 1655] (Ac-IWIAQAL[Cit][R8]IGDAFN[S5]YYA-NH2; staple 9-16), the results for the Ki at Bcl-2 and on Mcl-1 were 0.212 µM and 0.0075 µM, respectively.

`CC[C@H](C)[C@H](NC(C)=O)C(=O)N[C@@H](Cc1c[nH]c2ccccc12)C(=O)N[C@@H](Cc1ccc(-c2ccccc2)cc1)C(=O)N[C@@H](C)C(=O)N[C@@H](CCC(N)=O)C(=O)N[C@@H](C)C(=O)N[C@@H](CC(C)C)C(=O)N[C@@H](CCCNC(=N)N)C(=O)N[C@]1(C)CCCCCCC=CCCC[C@@](C)(C(=O)N[C@@H](Cc2ccc(O)cc2)C(=O)N[C@@H](Cc2ccc(O)cc2)C(=O)N[C@@H](C)C(N)=O)NC(=O)[C@H](CC(N)=O)NC(=O)[C@H](Cc2ccccc2)NC(=O)[C@H](C)NC(=O)[C@H](CC(=O)O)NC(=O)CNC(=O)[C@H]([C@@H](C)CC)NC1=O` [compound 1686] (Ac-IW[Bip]AQALR[R8]IGDAFN[S5]YYA-NH2; staple 9-16): the Ki (in general, a measure of affinity in units of concentration, obtained from inhibition or displacement) on Bcl-2 is more than 1 µM; on Mcl-1, 0.011 µM.

For `CC[C@H](C)[C@H](NC(C)=O)C(=O)N[C@@H](Cc1c[nH]c2ccccc12)C(=O)N[C@H](C(=O)N[C@@H](C)C(=O)N[C@@H](CCC(N)=O)C(=O)N[C@@H](C)C(=O)N[C@@H](CC(C)C)C(=O)N[C@@H](CCCNC(=N)N)C(=O)N[C@]1(C)CCCCCCC=CCCC[C@@](C)(C(=O)N[C@@H](Cc2ccc(O)cc2)C(=O)N[C@@H](Cc2ccc(O)cc2)C(=O)N[C@@H](C)C(N)=O)NC(=O)[C@H](CC(N)=O)NC(=O)[C@H](Cc2ccccc2)NC(=O)[C@H](C)NC(=O)[C@H](CC(=O)O)NC(=O)CNC(=O)[C@H]([C@@H](C)CC)NC1=O)C1CCCCC1` [compound 1713] (Ac-IW[Chg]AQALR[R8]IGDAFN[S5]YYA-NH2; staple 9-16), the values for the Ki on Bcl-2 and at Mcl-1 were 0.0389 µM and 0.0046 µM, respectively.

For `CC[C@H](C)[C@H](NC(C)=O)C(=O)N[C@@H](Cc1c[nH]c2ccccc12)C(=O)N[C@H](C(=O)N[C@@H](C)C(=O)N[C@@H](C)C(=O)N[C@@H](C)C(=O)N[C@@H](CC(C)C)C(=O)N[C@@H](CCCNC(=N)N)C(=O)N[C@]1(C)CCCCCCC=CCCC[C@@](C)(C(=O)N[C@@H](Cc2ccc(O)cc2)C(=O)N[C@@H](Cc2ccc(O)cc2)C(=O)N[C@@H](C)C(N)=O)NC(=O)[C@H](CC(N)=O)NC(=O)[C@H](Cc2ccccc2)NC(=O)[C@H](C)NC(=O)[C@H](CC(=O)O)NC(=O)[C@H](C(C)C)NC(=O)[C@H]([C@@H](C)CC)NC1=O)[C@@H](C)CC` [compound 1739] (Ac-IWIAAALR[R8]IVDAFN[S5]YYA-NH2; staple 9-16), the Ki at Bcl-2 came out at 0.12 µM.

Consider `CC[C@H](C)[C@H](NC(C)=O)C(=O)N[C@@H](Cc1c[nH]c2ccccc12)C(=O)N[C@H](C(=O)N[C@@H](C)C(=O)N[C@@H](C)C(=O)N[C@@H](C)C(=O)N[C@@H](CC(C)C)C(=O)N[C@@H](CCCNC(=N)N)C(=O)N[C@]1(C)CCCCCCC=CCCC[C@@](C)(C(=O)N[C@@H](Cc2ccc(O)cc2)C(=O)N[C@@H](Cc2ccc(O)cc2)C(=O)N[C@@H](C)C(N)=O)NC(=O)[C@H](CC(N)=O)NC(=O)[C@H](Cc2ccccc2)NC(=O)[C@H](C)NC(=O)[C@H](CCC(=O)O)NC(=O)CNC(=O)[C@H]([C@@H](C)CC)NC1=O)[C@@H](C)CC` [compound 1740] (Ac-IWIAAALR[R8]IGEAFN[S5]YYA-NH2; staple 9-16), for which the inhibition constant (Ki) at Bcl-2 was 0.142 µM.

Consider `CC[C@H](C)[C@H](NC(C)=O)C(=O)N[C@@H](Cc1c[nH]c2ccccc12)C(=O)N[C@H](C(=O)N[C@@H](C)C(=O)N[C@@H](CCC(N)=O)C(=O)N[C@@H](C)C(=O)N[C@@H](CC(C)C)C(=O)N[C@@H](CCCNC(=N)N)C(=O)N[C@]1(C)CCCCCCC=CCCC[C@@](C)(C(=O)N[C@@H](Cc2ccc(O)cc2)C(=O)N[C@@H](Cc2ccc(O)cc2)C(=O)N[C@@H](C)C(N)=O)NC(=O)[C@H](CC(N)=O)NC(=O)[C@H](CCc2ccccc2)NC(=O)[C@H](C)NC(=O)[C@H](CC(=O)O)NC(=O)CNC(=O)[C@H]([C@@H](C)CC)NC1=O)[C@@H](C)CC` [compound 1743] (Ac-IWIAQALR[R8]IGDA[hPhe]N[S5]YYA-NH2; staple 9-16), for which the inhibition constant (Ki) was determined as 0.0389 µM at Bcl-2 and 0.0027 µM at Mcl-1.

With `CC[C@H](C)[C@H](NC(C)=O)C(=O)N[C@@H](Cc1c[nH]c2ccccc12)C(=O)N[C@H](C(=O)N[C@@H](C)C(=O)N[C@@H](C)C(=O)N[C@@H](C)C(=O)N[C@@H](CC(C)C)C(=O)N[C@@H](CCCNC(=N)N)C(=O)N[C@]1(C)CCCCCCC=CCCC[C@@](C)(C(=O)N[C@@H](Cc2ccc(O)cc2)C(=O)N[C@@H](Cc2ccc(O)cc2)C(=O)N[C@@H](C)C(N)=O)NC(=O)[C@H](CCC(=O)O)NC(=O)[C@H](Cc2ccccc2)NC(=O)[C@H](C)NC(=O)[C@H](CC(=O)O)NC(=O)CNC(=O)[C@H]([C@@H](C)CC)NC1=O)[C@@H](C)CC` [compound 1749] (Ac-IWIAAALR[R8]IGDAFE[S5]YYA-NH2; staple 9-16), the Ki at Bcl-2 is 0.0307 µM; on Mcl-1, 0.0018 µM.

Take `CC[C@H](C)[C@H](NC(C)=O)C(=O)N[C@@H](Cc1c[nH]c2ccccc12)C(=O)N[C@H](C(=O)N[C@@H](C)C(=O)N[C@@H](C)C(=O)N[C@@H](C)C(=O)N[C@@H](CC(C)C)C(=O)N[C@@H](CCCNC(=N)N)C(=O)N[C@]1(C)CCCCCCC=CCCC[C@@](C)(C(=O)N[C@@H](CC(C)C)C(=O)N[C@@H](Cc2ccc(O)cc2)C(=O)N[C@@H](C)C(N)=O)NC(=O)[C@H](CC(N)=O)NC(=O)[C@H](Cc2ccccc2)NC(=O)[C@H](C)NC(=O)[C@H](CC(=O)O)NC(=O)CNC(=O)[C@H]([C@@H](C)CC)NC1=O)[C@@H](C)CC` [compound 1753] (Ac-IWIAAALR[R8]IGDAFN[S5]LYA-NH2; staple 9-16): at Bcl-2, the Ki was found to be 0.125 µM.

As to `CC[C@H](C)[C@H](NC(C)=O)C(=O)N[C@@H](Cc1c[nH]c2ccccc12)C(=O)N[C@H](C(=O)N[C@@H](C)C(=O)N[C@@H](CCC(N)=O)C(=O)N[C@@H](C)C(=O)N[C@@H](CC(C)C)C(=O)N[C@@H](CCCNC(=N)N)C(=O)N[C@]1(C)CCCCCCC=CCCC[C@@](C)(C(=O)N[C@@H](Cc2ccc(O)cc2)C(=O)N[C@@H](CCc2ccccc2)C(=O)N[C@@H](C)C(N)=O)NC(=O)[C@H](CC(N)=O)NC(=O)[C@H](Cc2ccccc2)NC(=O)[C@H](C)NC(=O)[C@H](CC(=O)O)NC(=O)CNC(=O)[C@H]([C@@H](C)CC)NC1=O)[C@@H](C)CC` [compound 1757] (Ac-IWIAQALR[R8]IGDAFN[S5]Y[hPhe]A-NH2; staple 9-16), the Ki at Bcl-2 is 0.0307 µM; on Mcl-1 it was 0.008 µM.

For the compound `CC[C@H](C)[C@H](NC(C)=O)C(=O)N[C@@H](Cc1c[nH]c2ccccc12)C(=O)N[C@H](C(=O)N[C@@H](C)C(=O)N[C@@H](C)C(=O)N[C@@H](C)C(=O)N[C@@H](CC(C)C)C(=O)N[C@@H](CCCNC(=N)N)C(=O)N[C@]1(C)CCCCCCC=CCCC[C@@](C)(C(=O)N[C@@H](Cc2ccc(O)cc2)C(=O)N[C@@H](Cc2ccc(O)cc2)C(=O)N[C@@H](CCCNC(=N)N)C(N)=O)NC(=O)[C@H](CC(N)=O)NC(=O)[C@H](Cc2ccccc2)NC(=O)[C@H](C)NC(=O)[C@H](CC(=O)O)NC(=O)CNC(=O)[C@H]([C@@H](C)CC)NC1=O)[C@@H](C)CC` [compound 1765] (Ac-IWIAAALR[R8]IGDAFN[S5]YYR-NH2; staple 9-16), the Ki at Bcl-2 was determined as 0.142 µM.

For `CC[C@H](C)[C@H](NC(C)=O)C(=O)N[C@@H](Cc1c[nH]c2ccccc12)C(=O)N[C@H](C(=O)N[C@@H](C)C(=O)N[C@@H](CCC(N)=O)C(=O)N[C@@H](C)C(=O)N[C@@H](C)C(=O)N[C@@H](CCCNC(N)=O)C(=O)N[C@]1(C)CCCCCCC=CCCC[C@@](C)(C(=O)N[C@@H](Cc2ccc(O)cc2)C(=O)N[C@@H](Cc2ccc(O)cc2)C(=O)N[C@@H](C)C(N)=O)NC(=O)[C@H](CC(N)=O)NC(=O)[C@H](Cc2ccccc2)NC(=O)[C@H](C)NC(=O)[C@H](CC(=O)O)NC(=O)CNC(=O)[C@H]([C@@H](C)CC)NC1=O)[C@@H](C)CC` [compound 1771] (Ac-IWIAQAA[Cit][R8]IGDAFN[S5]YYA-NH2; staple 9-16), the Ki on Bcl-2 and at Mcl-1 was more than 1 µM throughout.

For `CC[C@H](C)[C@H](NC(C)=O)C(=O)N[C@]1(C)CCCCCCC=CCCCC2(CCCC=CCCCCCC[C@@](C)(C(=O)N[C@@H](Cc3ccc(O)cc3)C(=O)N[C@@H](Cc3ccc(O)cc3)C(=O)N[C@@H](C)C(N)=O)NC(=O)[C@H](CC(N)=O)NC(=O)[C@H](Cc3ccccc3)NC(=O)[C@H](CCC(=O)O)NC(=O)[C@H](CC(=O)O)NC(=O)CNC(=O)[C@H]([C@@H](C)CC)NC2=O)NC(=O)[C@H](CCCNC(=N)N)NC(=O)[C@H](CC(C)C)NC(=O)[C@H](C)NC(=O)[C@H](CCC(N)=O)NC(=O)[C@H](C)NC(=O)[C@H]([C@@H](C)CC)NC1=O` (stereo partly shown) [compound 1782], the Ki on Bcl-2 was found to be 0.022 µM.
